Laboratory results published in PubChem BioAssay AID1963860 (Molecular Pharmacology Branch, DTP, NCI, 2024).

Test system: CN0375-F725-PDC KRAS spheroid viability
Test: Anticancer human tumor CN0375-F725-PDC patient-derived colon carcinoma cell line growth inhibition [KRAS2]
Details: spheroids with HUVEC and MSC; for IC50: curve of first compound; for viability, T/C: stronger effect = lower value
Summary of the method: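 Combination screen of spheroid viability in tumor-cell co-cultures with endothelial (HUVEC) and mesenchymal stem cell stroma. Each agent was tested in half-log dilutions, topping at clinical Cmax or at 10 microM without a known Cmax.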

[1] = second compound 0.1 µM, first compound 0.01 µM
[2] = second compound 0.1 µM, first compound 0.0316 µM
[3] = second compound 0.1 µM, first compound 0.1 µM
[4] = second compound 0.1 µM, first compound 0.316 µM
[5] = second compound 0.1 µM, first compound 1 µM
[6] = second compound 0.1 µM, first compound 3.16 µM
[7] = second compound 0.316 µM, first compound 0.01 µM
[8] = second compound 0.316 µM, first compound 0.0316 µM
[9] = second compound 0.316 µM, first compound 0.1 µM
[10] = second compound 0.316 µM, first compound 0.316 µM
[11] = second compound 0.316 µM, first compound 1 µM
[12] = second compound 0.316 µM, first compound 3.16 µM
[13] = second compound 1 µM, first compound 0.01 µM
[14] = second compound 1 µM, first compound 0.0316 µM
[15] = second compound 1 µM, first compound 0.1 µM
[16] = second compound 1 µM, first compound 0.316 µM
[17] = second compound 1 µM, first compound 1 µM
[18] = second compound 1 µM, first compound 3.16 µM
[19] = second compound 3.16 µM, first compound 0.01 µM
[20] = second compound 3.16 µM, first compound 0.0316 µM
[21] = second compound 3.16 µM, first compound 0.1 µM
[22] = second compound 3.16 µM, first compound 0.316 µM
[23] = second compound 3.16 µM, first compound 1 µM
[24] = second compound 3.16 µM, first compound 3.16 µM
[25] = second compound 10 µM, first compound 0.01 µM
[26] = second compound 10 µM, first compound 0.0316 µM
[27] = second compound 10 µM, first compound 0.1 µM
[28] = second compound 10 µM, first compound 0.316 µM
[29] = second compound 10 µM, first compound 1 µM
[30] = second compound 10 µM, first compound 3.16 µM
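Also: spheroids exposed to agents for 7 days.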

## CC1COCCN1c1cc(-c2ccnn2C)c2ccnc(-c3ccn[nH]3)c2n1 (stereo not given) + CC1OCC2(CCN(c3cnc(Sc4ccnc(N)c4Cl)c(N)n3)CC2)C1N
Second compound 0.1 µM
  IC50: > 3.16 µM
Second compound 0.316 µM
  IC50: > 3.16 µM
Second compound 1 µM
  IC50: > 3.16 µM
Second compound 3.16 µM
  IC50: 1.76 µM
Second compound 10 µM
  IC50: 0.614 µM
[1]
  viability, T/C: 107%
[2]
  viability, T/C: 91.7%
[3]
  viability, T/C: 84.1%
[4]
  viability, T/C: 77.1%
[5]
  viability, T/C: 67.5%
[6]
  viability, T/C: 56.2%
[7]
  viability, T/C: 90.7%
[8]
  viability, T/C: 92.8%
[9]
  viability, T/C: 74.3%
[10]
  viability, T/C: 72.9%
[11]
  viability, T/C: 65.1%
[12]
  viability, T/C: 51.3%
[13]
  viability, T/C: 88.2%
[14]
  viability, T/C: 82.7%
[15]
  viability, T/C: 73.3%
[16]
  viability, T/C: 70.7%
[17]
  viability, T/C: 62.1%
[18]
  viability, T/C: 48.6%
[19]
  viability, T/C: 81.4%
[20]
  viability, T/C: 76.8%
[21]
  viability, T/C: 68.3%
[22]
  viability, T/C: 59.3%
[23]
  viability, T/C: 54.2%
[24]
  viability, T/C: 46.4%
[25]
  viability, T/C: 69.7%
[26]
  viability, T/C: 74.8%
[27]
  viability, T/C: 62.5%
[28]
  viability, T/C: 53.2%
[29]
  viability, T/C: 49.2%
[30]
  viability, T/C: 39.6%

## Cn1nccc1Nc1nccc(-c2cc3c(s2)C(C)(C)N(CCN2CCOCC2)C3=O)n1 + CC1OCC2(CCN(c3cnc(Sc4ccnc(N)c4Cl)c(N)n3)CC2)C1N
Second compound 0.1 µM
  IC50: 2.33 µM
Second compound 0.316 µM
  IC50: 1.07 µM
Second compound 1 µM
  IC50: 0.661 µM
Second compound 3.16 µM
  IC50: 0.341 µM
Second compound 10 µM
  IC50: 0.209 µM
[2]
  viability, T/C: 98.5%
[3]
  viability, T/C: 83.1%
[4]
  viability, T/C: 69.8%
[5]
  viability, T/C: 58.7%
[6]
  viability, T/C: 47.5%
Second compound 0.1 µM, first compound 10 µM
  viability, T/C: 36.7%
[8]
  viability, T/C: 88.8%
[9]
  viability, T/C: 78.1%
[10]
  viability, T/C: 60.4%
[11]
  viability, T/C: 51.8%
[12]
  viability, T/C: 42.1%
Second compound 0.316 µM, first compound 10 µM
  viability, T/C: 36.3%
[14]
  viability, T/C: 81.2%
[15]
  viability, T/C: 81.9%
[16]
  viability, T/C: 60.1%
[17]
  viability, T/C: 45.3%
[18]
  viability, T/C: 37.1%
Second compound 1 µM, first compound 10 µM
  viability, T/C: 35.9%
[20]
  viability, T/C: 74.7%
[21]
  viability, T/C: 65.5%
[22]
  viability, T/C: 52.1%
[23]
  viability, T/C: 36.4%
[24]
  viability, T/C: 33.7%
Second compound 3.16 µM, first compound 10 µM
  viability, T/C: 31.5%
[26]
  viability, T/C: 62.7%
[27]
  viability, T/C: 63.3%
[28]
  viability, T/C: 42.8%
[29]
  viability, T/C: 31.9%
[30]
  viability, T/C: 28.9%
Second compound 10 µM, first compound 10 µM
  viability, T/C: 28.3%

## CC(=O)OC12COC1CC(O)C1(C)C(=O)C(O)C3=C(C)C(OC(=O)C(O)C(NC(=O)OC(C)(C)C)c4ccccc4)CC(O)(C(OC(=O)c4ccccc4)C21)C3(C)C (stereo not given) + CNCc1ccccc1-c1csc(C(C)Nc2nc(C)nc3cc(OC)c(OC)cc23)c1
Second compound 0.1 µM
  IC50: > 3.16 µM
Second compound 0.316 µM
  IC50: > 3.16 µM
Second compound 1 µM
  IC50: > 3.16 µM
Second compound 3.16 µM
  IC50: < 0.01 µM
Second compound 10 µM
  IC50: < 0.01 µM
[1]
  viability, T/C: 96.2%
[2]
  viability, T/C: 97.7%
[3]
  viability, T/C: 80.7%
[4]
  viability, T/C: 82.5%
[5]
  viability, T/C: 80.4%
[6]
  viability, T/C: 74.2%
[7]
  viability, T/C: 92.8%
[8]
  viability, T/C: 89.4%
[9]
  viability, T/C: 77.5%
[10]
  viability, T/C: 74.7%
[11]
  viability, T/C: 78.5%
[12]
  viability, T/C: 66.8%
[13]
  viability, T/C: 101%
[14]
  viability, T/C: 99.7%
[15]
  viability, T/C: 91.8%
[16]
  viability, T/C: 84%
[17]
  viability, T/C: 77.4%
[18]
  viability, T/C: 78%
[19]
  viability, T/C: 1.13%
[20]
  viability, T/C: 100%
[21]
  viability, T/C: 0.66%
[22]
  viability, T/C: 0.86%
[23]
  viability, T/C: 1.34%
[24]
  viability, T/C: 79.3%
[25]
  viability, T/C: 0.72%
[26]
  viability, T/C: 0.57%
[27]
  viability, T/C: 0.77%
[28]
  viability, T/C: 0.24%
[29]
  viability, T/C: 0.62%
[30]
  viability, T/C: 0.25%
